Source: patent US20060189602A1, “Pyridazinone compounds” (Anadys Pharmaceuticals, Inc., priority 2004, published 2006)

Molecular target: HCV NS5B polymerase (Hepatitis C virus genotype 1b, UniProt P26663)
Test: NS5B Polymerase Inhibition Assay
Format: biochemical
Details: 50 nM enzyme, [α-33P]GTP, oligo (rG13)/poly rC, 75 min at 28° C.
Method: NS5B Polymerase Inhibition Assay
Compounds were tested for HCV polymerase inhibition. Assays were performed in a 96-well streptavidin-coated FlashPlate using 50 nM enzyme, 0.5 μCi of [α-^33P]GTP, 0.63 μM GTP, and 250 nM 5′biotinylated oligo (rG13)/poly rC in 20 mM Tris-HCl, pH 7.5, 5 mM MgCl2, 20 mM NaCl, 5 mM dithiothreitol, and 0.1 g/L BSA. The reaction was stopped by aspiration after 75 min at 28° C. and the plate was washed several times. After washing, incorporated radioactivity was counted using a Microbeta scintillation counter.

HCV NS5B polymerase, sequence (P26663 2420-3010): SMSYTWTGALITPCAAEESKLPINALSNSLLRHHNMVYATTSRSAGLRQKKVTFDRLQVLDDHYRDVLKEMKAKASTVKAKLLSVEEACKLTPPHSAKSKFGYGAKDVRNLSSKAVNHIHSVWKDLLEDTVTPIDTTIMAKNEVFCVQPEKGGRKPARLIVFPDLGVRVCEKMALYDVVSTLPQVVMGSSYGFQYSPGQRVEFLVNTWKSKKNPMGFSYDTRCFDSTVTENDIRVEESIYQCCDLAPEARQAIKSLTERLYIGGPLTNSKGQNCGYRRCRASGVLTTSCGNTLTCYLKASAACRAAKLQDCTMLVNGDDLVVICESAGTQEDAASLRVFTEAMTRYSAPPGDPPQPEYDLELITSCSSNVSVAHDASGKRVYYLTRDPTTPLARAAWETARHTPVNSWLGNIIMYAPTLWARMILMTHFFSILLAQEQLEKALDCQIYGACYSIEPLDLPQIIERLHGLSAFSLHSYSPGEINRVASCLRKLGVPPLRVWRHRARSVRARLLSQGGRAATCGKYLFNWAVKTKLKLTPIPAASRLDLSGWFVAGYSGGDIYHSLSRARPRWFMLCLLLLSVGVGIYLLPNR

COc1ccc2c(c1)S(=O)(=O)NC(c1c(O)c(-c3cccs3)nn(CCC3CC3)c1=O)=N2 [Compound 3, 2-(2-Cyclopropyl-ethyl)-5-hydroxy-4-(7-methoxy-1,1-dioxo-1,2-di-hydro-1λ^6-benzo[1,2,4]thiadiazin-3-yl)-6-thiophen-2-yl-2H-py-ridazin-3-one]
IC50: < 10 µM

COc1ccc2c(c1)S(=O)(=O)NC(c1c(O)c(-c3cccs3)nn(Cc3ccccc3)c1=O)=N2 [Compound 5, 2-Benzyl-5-hydroxy-4-(7-methoxy-1,1-dioxo-1,2-dihydro-1λ^6-ben-zo[1,2,4]thiadiazin-3-yl)-6-thiophen-2-yl-2H-py-ridazin-3-one]
IC50: 10 to 50 µM

O=c1c(C2=Nc3ccc(O)cc3S(=O)(=O)N2)c(O)c(-c2cccs2)nn1Cc1ccccc1 [Compound 6, 2-Benzyl-5-hydroxy-4-(7-hydroxy-1,1-dioxo-1,2-dihydro-1λ^6-ben-zo[1,2,4]thiadiazin-3-yl)-6-thiophen-2-yl-2H-pyridazin-3-one]
IC50: < 10 µM

O=c1c(C2=Nc3ccc(O)cc3S(=O)(=O)N2)c(O)c(-c2cccs2)nn1CCC1CC1 [Compound 7, 2-(2-Cyclopropyl-ethyl)-5-hydroxy-4-(7-hydroxy-1,1-dioxo-1,2-di-hydro-1λ^6-benzo[1,2,4]thiadiazin-3-yl)-6-thiophen-2-yl-2H-py-ridazin-3-one]
IC50: < 10 µM

COc1ccc2c(c1)S(=O)(=O)NC(c1c(O)c(-c3ccc(C)s3)nn(CCC(C)C)c1=O)=N2 [Compound 9, 5-Hydroxy-4-(7-methoxy-1,1-dioxo-1,2-dihydro-1λ^6-ben-zo[1,2,4]thiadiazin-3-yl)-2-(3-methyl-butyl)-6-(5-methyl-thio-phen-2-yl)-2H-pyridazin-3-one]
IC50: 10 to 50 µM

CCCCn1nc(C(C)C)c(O)c(C2=Nc3ccc(OC)cc3S(=O)(=O)N2)c1=O [Compound 10, 2-Butyl-5-hydroxy-6-isopropyl-4-(7-methoxy-1,1-dioxo-1,2-di-hydro-1λ^6-benzo[1,2,4]thiadiazin-3-yl)-2H-pyridazin-3-one]
IC50: 10 to 50 µM

CCCCn1nc(C(C)C)c(O)c(C2=Nc3ccc(O)cc3S(=O)(=O)N2)c1=O [Compound 11, 2-Butyl-5-hydroxy-4-(7-hydroxy-1,1-dioxo-1,2-dihydro-1λ^6-ben-zo[1,2,4]thiadiazin-3-yl)-6-isopropyl-2H-pyridazin-3-one]
IC50: < 10 µM

CCCCn1nc(C(C)C)c(O)c(C2=Nc3ccc(OCC(N)=O)cc3S(=O)(=O)N2)c1=O [Compound 12, 2-[3-(2-Butyl-5-hydroxy-6-isopropyl-3-oxo-2,3-dihydro-py-ridazin-4-yl)-1,1-dioxo-1,2-dihdyro-1λ^6-ben-zo[1,2,4]thiadiazin-7-yloxy]-actamide]
IC50: < 10 µM

CCCCn1nc(C(C)(C)CO)c(O)c(C2=Nc3ccc(OC)cc3S(=O)(=O)N2)c1=O [Compound 14, 2-Butyl-5-hydroxy-6-(2-hydroxy-1,1-dimethyl-ethyl)-4-(7-meth-oxy-1,1-dioxo-1,2-dihydro-1λ^6-benzo[1,2,4]thiadiazin-3-yl)-2H-py-ridazin-3-one]
IC50: 10 to 50 µM

CCCCn1nc(-c2ccccc2)c(O)c(C2=Nc3ccc(OC)cc3S(=O)(=O)N2)c1=O [Compound 15, 2-Butyl-5-hydroxy-4-(7-methoxy-1,1-dioxo-1,2-dihydro-1λ^6-ben-zo[1,2,4]thiadiazin-3-yl)-6-phenyl-2H-pyridazin-3-one]
IC50: 10 to 50 µM

CCCCn1nc(-c2cccs2)c(O)c(C2=Nc3ccc(OC)cc3S(=O)(=O)N2)c1=O [Compound 17, 2-Butyl-5-hydroxy-4-(7-methoxy-1,1-dioxo-1,2-dihydro-1λ^6-ben-zo[1,2,4]thiadiazin-3-yl)-6-thiophen-2-yl-2H-pyridazin-3-one]
IC50: < 10 µM

O=c1c(C2=Nc3ccc(O)cc3S(=O)(=O)N2)c(O)c(-c2cccs2)nn1Cc1c(F)cccc1Cl [Compound 19, 2-(2-Chloro-6-fluoro-benzyl)-5-hydroxy-4-(7-hydroxy-1,1-di-oxo-1,2-dihydro-1λ^6-benzo[1,2,4]thiadiazin-3-yl)-6-thio-phen-2-yl-2H-pyridazin-3-one]
IC50: 10 to 50 µM

CC(C)CCn1nc(-c2cccs2)c(O)c(C2=Nc3ccc(OCC(=O)N4CCC(N)C4)cc3S(=O)(=O)N2)c1=O (stereo not shown) [Compound 21, 4-{7-[2-(3-Amino-pyrrolidin-1-yl)-2-oxo-ethoxy]-1,1-dioxo-1,2-di-hydro-1λ^6-benzo[1,2,4]thiadiazin-3-yl}-5-hydroxy-2-(3-methyl-butyl)-6-thiophen-2-yl-2H-pyridazin-3-one]
IC50: < 10 µM

COc1ccc2c(c1)S(=O)(=O)NC(c1c(O)c(C(C)C)nn(CCC(C)C)c1=O)=N2 [Compound 26, 5-Hydroxy-6-isopropyl-4-(7-methoxy-1,1-dioxo-1,2-dihydro-1λ^6-ben-zo[1,2,4]thiadiazin-3-yl)-2-(3-methyl-butyl)-2H-py-ridazin-3-one]
IC50: 10 to 50 µM

CC(C)CCn1nc(C(C)C)c(O)c(C2=Nc3ccccc3S(=O)(=O)N2)c1=O [Compound 27, 4-(1,1-Dioxo-1,2-dihydro-1λ^6-benzo[1,2,4]thiadiazin-3-yl)-5-hy-droxy-6-isopropyl-2-(3-methyl-butyl)-2H-pyridazin-3-one]
IC50: 10 to 50 µM

COc1ccc2c(c1)S(=O)(=O)NC(c1c(O)c(-c3cccn3C)nn(CCC(C)C)c1=O)=N2 [Compound 28, 5-Hydroxy-4-(7-methoxy-1,1-dioxo-1,2-dihydro-1λ^6-ben-zo[1,2,4]thiadiazin-3-yl)-2-(3-methyl-butyl)-6-(1-methyl-1H-pyr-rol-2-yl)-2H-pyridazin-3-one]
IC50: 10 to 50 µM

CC(C)CCn1nc(C(C)C)c(O)c(C2=Nc3ccc(O)cc3S(=O)(=O)N2)c1=O [Compound 29, 5-Hydroxy-4-(7-hydroxy-1,1-dioxo-1,2-dihydro-1λ^6-ben-zo[1,2,4]thiadiazin-3-yl)-6-isopropyl-2-(3-methyl-butyl)-2H-py-ridazin-3-one]
IC50: 10 to 50 µM

CC(C)CCn1nc(-c2cccs2)c(O)c(C2=Nc3ccncc3S(=O)(=O)N2)c1=O [Compound 30, 4-(1,1-Dioxo-1,2-dihydro-1λ^6-pyrido[4,3-e][1,2,4]thiadiazin-3-yl)-5-hy-droxy-2-(3-methyl-butyl)-6-thiophen-2-yl-2H-py-ridazin-3-one]
IC50: < 10 µM

COc1ccc2c(c1)S(=O)(=O)NC(c1c(O)c(-c3ccco3)nn(CCC(C)C)c1=O)=N2 [Compound 32, 6-Furan-2-yl-5-hydroxy-4-(7-methoxy-1,1-dioxo-1,2-dihydro-1λ^6-ben-zo[1,2,4]thiadiazin-3-yl)-2-(3-methyl-butyl)-2H-py-ridazin-3-one]
IC50: < 10 µM

CC(C)CCn1nc(C(C)C)c(O)c(C2=Nc3ccc(OCC(N)=O)cc3S(=O)(=O)N2)c1=O [Compound 33, 2-{3-[5-Hydroxy-6-isopropyl-2-(3-methyl-butyl)-3-oxo-2,3-di-hydro-pyridazin-4-yl]-1,1-dioxo-1,2-dihydro-1λ^6-ben-zo[1,2,4]thiadiazin-7-yloxy}-acetamide]
IC50: < 10 µM

CCCCn1nc(CCC(C)C)c(O)c(C2=Nc3ccc(OC)cc3S(=O)(=O)N2)c1=O [Compound 34, 2-Butyl-5-hydroxy-4-(7-methoxy-1,1-dioxo-1,2-dihydro-1λ^6-ben-zo[1,2,4]thiadiazin-3-yl)-6-(3-methyl-butyl)-2H-pyridazin-3-one]
IC50: < 10 µM

CCCCc1nn(CCC(C)C)c(=O)c(C2=Nc3ccc(OC)cc3S(=O)(=O)N2)c1O [Compound 35, 6-Butyl-5-hydroxy-4-(7-methoxy-1,1-dioxo-1,2-dihdyro-1λ^6-ben-zo[1,2,4]thiadiazin-3-yl)-2-(3-methyl-butyl)-2H-pyridazin-3-one]
IC50: < 10 µM
